This assay has as its target Somatostatin receptor type 1 (Homo sapiens, UniProt P30872).

In ChEMBL document CHEMBL5532726, “Somatostatin Receptor Subtype 4 Agonists for Potential Treatment of Alzheimer's Disease and Other Central Nervous System Disorders” (ACS Med Chem Lett, 2024) one finds IC50 data, which are given here for one compound.

pIC50: −log10 of the molar value. Some results are limits rather than exact numbers.

Sequence of Somatostatin receptor type 1 (P30872 whole entry): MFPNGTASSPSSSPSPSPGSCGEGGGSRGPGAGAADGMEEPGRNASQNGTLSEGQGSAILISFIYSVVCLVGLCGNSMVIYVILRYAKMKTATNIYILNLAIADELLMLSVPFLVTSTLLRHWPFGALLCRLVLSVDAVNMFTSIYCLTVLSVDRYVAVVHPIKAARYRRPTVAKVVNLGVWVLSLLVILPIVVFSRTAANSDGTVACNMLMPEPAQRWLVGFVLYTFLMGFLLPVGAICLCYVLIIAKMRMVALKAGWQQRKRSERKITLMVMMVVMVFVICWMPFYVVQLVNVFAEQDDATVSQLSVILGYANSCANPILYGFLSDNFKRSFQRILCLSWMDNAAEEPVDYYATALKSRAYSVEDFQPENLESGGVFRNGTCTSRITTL

What is called pIC50 is the negative decadic logarithm of the IC50, by convention in mol/L. Read a low pIC50 as a large IC50. Turning to `CC(Oc1ccccc1C1CC1)C(=O)N[C@H]1CCNC[C@@H]1F` (stereo partly specified), the pIC50 was < 4.30.
